Results as given in patent US7846735B2, “Compositions and methods for lipoprotein uptake assays” (General Electric Company, priority 2006, dated 2010).

Experiments:
[1] = pH dependence of dye fluorescence; type: physicochemical
Text: The assays employ a pH-sensing cyanine dye, which is minimally fluorescent at neutral pH outside the cell, but highly fluorescent in the acidic environment (pKa ˜7.3; excitation peak 650 nm/emission peak 670 nm). In most instances, the lipoproteins or modified lipoproteins are taken up by cell-surface receptors through the process of receptor-mediated endocytosis. Once internalized, lipoproteins are transported to highly acidic vesicles. When labeled with CypHer5E dye, lipoproteins are minimally fluorescent at neutral pH outside the cell, but highly fluorescent in the acidic environment of the uptake vesicle. This translates into high signal-to-noise ratio compared to traditional dyes that are equally fluorescent inside or outside the cell. Additionally, the disclosed methods eliminate washing steps required for removal of excess of labeled lipoprotein in the media at the end of the protocol. […]
CypHer5E dye is 3 to 20 times more fluorescent in the acidic environment of the intracellular vesicles than at neutral pH outside the cell (pKa ˜7.3; excitation peak 650 nm/emission peak 670 nm). CypHer5E dye fluorescence is enhanced by the acidic conditions of lipoprotein-containing intracellular vesicles after receptor-mediated lipoprotein after the CypHer5E-AcLDL is internalized.

[2] = molecular target: T1, scavenger receptor A (SR-A, CD204) (Mus musculus, UniProt P30204); assay: Inhibition of CypHer5E-AcLDL uptake by known SR-A ligands; type: cell-based; conditions: RAW264.7 mouse macrophages, FIG. 7
T1 construct: endogenous in cells; host or cells: RAW264.7 mouse macrophages
T1 sequence (P30204 1-458): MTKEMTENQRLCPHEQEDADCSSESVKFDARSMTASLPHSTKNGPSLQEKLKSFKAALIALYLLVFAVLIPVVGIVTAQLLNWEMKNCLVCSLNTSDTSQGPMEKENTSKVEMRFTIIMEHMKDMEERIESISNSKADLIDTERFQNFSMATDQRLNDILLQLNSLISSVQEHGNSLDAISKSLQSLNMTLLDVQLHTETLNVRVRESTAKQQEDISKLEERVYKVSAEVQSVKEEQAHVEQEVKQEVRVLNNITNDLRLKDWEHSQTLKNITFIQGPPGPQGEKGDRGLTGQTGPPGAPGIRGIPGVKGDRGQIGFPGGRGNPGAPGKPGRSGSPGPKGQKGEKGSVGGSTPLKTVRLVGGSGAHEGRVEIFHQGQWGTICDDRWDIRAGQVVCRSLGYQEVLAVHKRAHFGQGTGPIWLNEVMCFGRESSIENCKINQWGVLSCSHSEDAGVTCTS
Method: RAW264.7 Mouse Macrophages, J774A.1 Mouse Macrophages, U-2 OS Human Osteosarcoma Cells were seeded in standard cell culture flasks and cultured in Dulbecco's Modified Eagle Medium (DMEM) with 10% fetal bovine serum (FBS) until about 70% to about 80% confluent. On the day of the assay, the cells were washed twice with serum-free DMEM, and incubated for 30 minutes in cell culture incubator in DMEM containing 1 μM Cell Tracker Green dye. After staining with Cell Tracker Green dye, cells were washed three times with serum-free DMEM, scraped from tissue culture flask, and resuspended in DMEM with 12.5% Fetal Bovine Lipoprotein Deficient Serum (FBLDS) at 250,000 cells/ml.
80 μl of Cell Tracker Green-labeled cells at 250,000 cells/ml were added to each well of ViewPlate 96-well plate in DMEM with 12.5% Fetal Bovine Lipoprotein Deficient Serum (FBLDS). For inhibitor studies, 10 μl of 10-fold stock of the inhibitor in DMEM containing 10% dimethyl sulfoxide (DMSO) were added to each well. 10 μl of DMEM containing 10% DMSO were added for control wells. Cells were pre-incubated for 30 minutes at 37° C. in a cell culture incubator in the presence of the inhibitor before addition of labeled AcLDL. At the end of pre-incubation period, 10 μl of 100 μg/ml CypHer5E-AcLdL solution were added to each well. The incubation continued for another 2 to 18 hours at 37° C. in cell culture incubator before imaging. The Dil AcLDL complex assay was identical to CypHer5E-AcLDL assay except that Dil AcLDL complex was added to cells in place of CypHer5E-AcLDL conjugate.
Following incubation, images of CypHer5E-AcLDL uptake were acquired on IN Cell Analyzer 1000 or 3000 (GE Healthcare) using a 10× or 20× objective and FITC/Cy5 excitation/emission filters. Analysis was performed using Granularity Analysis and Object Intensity Analysis Modules within IN Cell Analyzer system software suite or using Developer™ Image Analysis software.

pKa [1] | inhibition of pH-sensing cyanine dye conjugate uptake (in words) [2] | Compound
~7.3 |  | CC1(C)C(/C=C/C=C/C=C2/Nc3ccc(S(=O)(=O)O)cc3C2(C)CCCCCC(=O)O)=[N+](CCCCS(=O)(=O)[O-])c2ccc(S(=O)(=O)O)cc21 (stereo not shown) [CypHer5E, 2-{[1E,3E,5E)-5-(3-methyl-3-(5-carboxypentyl)-5-sulfo-1,3-dihydro-2H-indol-2-ylidene]-1,3-pentadienyl}-3,3-dimethyl-5-sulfo-1-(4-sulfobutyl)-3H-indolium]
 | inhibition | Polyinosinic acid potassium salt [poly I]
 | inhibition | Dextran Sulfate MW 500,000 [Dex SO4]
 | inhibition | Polyguanylic acid potassium salt [poly G]
